Where two headings read alike, the source gives them in different places.

Data set [1] can be described thus: storage stability (increase of lactam content on storage). It counts as physicochemical. The settings on record: gabapentin obtained by the process; after one year at 25° C. and 50% humidity. As to the method: According to the invention, an aqueous solution containing approx. 10 to approx. 18 kg, preferably 13-15 kg, of gabapentin per 100 liters of water, at a temperature ranging from approx. 25 to approx. 60° C., preferably from 30 to 45° C., is added with the hydroxyacid in amounts of 0.95-1.05 mols per mol of gabapentin, the preferred molar ratio between the compounds being 1:1. The resulting suspension is stirred at the same temperature for 5-10 hours, then cooled to approx. 15-25° C. The resulting gabapentin hydroxybenzoate is dried under vacuum at approx. 50° C. The yield is approx. 90% on theoretical, with a assay higher than 99.5%. The resulting salt is suspended in a lower alcohol, preferably absolute ethanol, in amounts of approx. 3-5 liters per kg of salt, at a temperature of 15-25° C., and the suspension is added with an amount of tertiary amine (preferably tributylamine and most preferably N-ethyl-diisopropylamine (“Hünig base”)) in amounts of 1-1.2 mols per mol of gabapentin hydroxybenzoate. After stirring for some hours at the same temperature, the mixture is cooled to 5-10° C., the precipitated gabapentin is filtered or centrifuged, washed with the same alcohol, then stirred with ethanol containing approx. 10% by volume of water.

The conditions of data set [2]: stated as known; cited from earlier work.
For data set [3] the following is noted: hydroxybenzoate salts of gabapentin in water; precipitates from aqueous solution. The source says:
Numerous processes for reducing the chloride ions content in gabapentin exist. […] The proportion of remaining hydrochloride admixtures should thereby not exceed 20 ppm. The same also applies to other mineral acids.”

Take `NCC1(CC(=O)O)CCCCC1` [gabapentin, 1-(aminomethyl)-cyclohexaneacetic acid]: in data set [1], the “increase of content in lactam on storage” value is recorded as “does not undergo substantial increases”. Further, the water-solubility entry in data set [2] was “highly water-soluble”.

For the compound `NCC1(CC(=O)O)CCCCC1.O=C(O)c1ccc(O)cc1` [gabapentin 4-hydroxybenzoate], the water-solubility result in data set [3] is on record as “so poor”.

Consider `NCC1(CC(=O)O)CCCCC1.O=C(O)c1ccccc1O` [salicylate, gabapentin salicylate], for which the water-solubility result in data set [3] is “so poor”.
